Measurements published in patent US20250084091A1, “INHIBITORS OF SARS-COV-2” (The Texas A&M University System, priority 2021, published 2025).
Where two headings read alike, the source gives them in different places.

Columns and labels:
[1] = target: SARS-CoV-2 main protease (Mpro) (Severe acute respiratory syndrome coronavirus 2, UniProt P0DTD1); assay: biochemical
[2] = tested on: SARS-CoV-2 (strain USA-WA1/2020); assay: microbe, parasite or virus in culture; format: cell-based
[3] = tested on: HeLa-ACE2 cells; assay: cells; format: cell-based; conditions: Table 2, total cell count in infected plates
[4] = Uninfected host cell cytotoxicity counter screen; format: cell-based; conditions: human
Procedure, shortened: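 HeLa-ACE2 cells, uninfected, seeded at 400 cells/well with compounds and held 24 hours at 37° C., 5% CO2. Dead cells stained with Image-iT DEAD green, fixed in 4% paraformaldehyde, DAPI-counterstained and imaged. Data normalized to DMSO and 40 μM puromycin controls; concentration responses in triplicate.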

[5] = Severe acute respiratory syndrome coronavirus 2, Table 2, SARS-CoV-2 infected HeLa-ACE2 cells, read-out: CoV-2 HeLa EC50
[6] = Severe acute respiratory syndrome coronavirus 2, HeLa-ACE2, read-out: CoV-2 HeLa EC50, Table 2, SARS-CoV-2 infected HeLa-ACE2 cells
[7] = Table 2, uninfected cells, 24 hours, read-out: Uninfected HeLa-ACE2 CC50

Structure (SMILES)	IC50 ([1]; Table 2, read-out: Enzyme IC50)	EC50 [2, 5]	EC50 [3]	CC50 at 24 h [4]	IC50 ([1]; Enzyme IC50, Table 2)	EC50 [2, 6]	CC50 at 24 h [4, 7]	IC50 ([1]; Table 3, select example compounds against mpro, read-out: Enzyme IC50)	EC50 ([2]; Severe acute respiratory syndrome coronavirus 2, HeLa, Table 3, read-out: CoV-2 HeLa EC50)
O=C(c1cncc(F)c1)N1CCC(C(O)(c2ccccc2)c2ccccc2)CC1 [NZ-778, [1-(5-fluoropyridine-3-carbonyl)piperidin-4-yl]diphenylmethanol]	1700 nM	3630 nM	> 9610 nM	> 39800 nM	–	–	–	–	–
CC(=O)Nc1cccc(C(c2ccccc2)N2C3CCC2CN(C(=O)c2cncc(C)c2)C3)c1 (centres unmarked) [AA-627, N-(3-((3-(5-methylnicotinoyl)-3,8-diazabicyclo[3.2.1]octan-8-yl)(phenyl)methyl)phenyl)acetamide]	–	–	> 9610 nM	–	48 nM	3000 nM	> 39800 nM	–	–
Cc1cncc(C(=O)N2CC3CCC(C2)N3C(c2ccccc2)c2ccccc2)n1 [AA-658, (8-benzhydryl-3,8-diazabicyclo[3.2.1]octan-3-yl)-(6-methylpyrazin-2-yl)methanone]	–	–	> 9610 nM	–	800 nM	1950 nM	> 39800 nM	–	–
Cc1ccncc1C(=O)N1CCN(C(c2ccccc2)c2ccccc2)CC1 [AA-611, (4-benzhydrylpiperazin-1-yl)(4-methylpyridin-3-yl)methanone]	2500 nM	–	> 9610 nM	> 39800 nM	–	> 9610 nM	–	–	–
Cc1cncc(C(=O)N2CCN(C(c3ccccc3)c3ccc(F)cc3)CC2)c1 (centres unmarked) [AA-620, (4-((4-fluorophenyl)(phenyl)methyl)piperazin-1-yl)(5-methylpyridin-3-yl)methanone]	260 nM	717 nM	841 nM	> 39800 nM	–	–	–	–	–
Cc1cncc(C(=O)N2CCN(C(c3ccccc3)c3cc(F)cc(F)c3)CC2)c1 (centres unmarked) [MKP-1280, 1-[(3,5-difluorophenyl)(phenyl)methyl]-4-(5-methylpyridine-3-carbonyl)piperazine]	61 nM	158 nM	261 nM	> 39800 nM	–	–	–	–	–
O=C(c1cncc(Cl)c1)N1CCN(C(c2ccccc2)c2ccsc2)CC1 (centres unmarked) [MKP-1221, 1-(5-chloropyridine-3-carbonyl)-4-[phenyl(thiophen-3-yl)methyl]piperazine]	330 nM	831 nM	556 nM	> 39800 nM	–	–	–	–	–
O=C(c1cncc(C(F)(F)F)c1)N1CCN(C(c2ccccc2)c2ccccc2)CC1 [AA-590, (4-benzhydrylpiperazin-1-yl)(5-(trifluoromethyl)pyridin-3-yl)methanone]	990 nM	4900 nM	> 9610 nM	> 39800 nM	–	–	–	–	–
O=C(c1cccnc1)N1CCN(C(c2ccc(F)cc2)c2ccc(F)cc2)CC1 [AA-598, (4-(bis(4-fluorophenyl)methyl)piperazin-1-yl)(yridine-3-yl)methanone]	1900 nM	–	> 9610 nM	> 39800 nM	–	> 9610 nM	–	–	–
O=C(c1cncc(F)c1)N1CCN(C2c3ccccc3CCc3ccccc32)CC1 [ZS-318, (5-fluoro-3-pyridyl)-[4-(2-tricyclo[9.4.0.03,8]pentadeca-1(11),3(8),4,6,12,14-hexaenyl)piperazin-1-yl]methanone]	150 nM	700 nM	> 9610 nM	> 39800 nM	–	–	–	–	–
O=C(c1cncc(Cl)c1)N1CCN(C(c2ccccc2)c2ccccc2)CC1 [AA-591, (4-benzhydrylpiperazin-1-yl)(5-chloropyridin-3-yl)methanone]	300 nM	890 nM	> 9610 nM	> 39800 nM	–	–	–	–	–
Cc1cncc(C(=O)N2CCN(C(c3ccc(F)cc3)c3ccccc3F)CC2)c1 (centres unmarked) [MKP-1277, 1-[(2-fluorophenyl)(4-fluorophenyl)methyl]-4-(5-methylpyridine-3-carbonyl)piperazine]	150 nM	747 nM	2700 nM	> 39800 nM	–	–	–	–	–
Cc1cncc(C(=O)N2CCN(C(c3ccccc3)c3ccsc3)CC2)c1 (centres unmarked) [MKP-1222, 1-(5-methylpyridine-3-carbonyl)-4-[phenyl(thiophen-3-yl)methyl]piperazine]	370 nM	1400 nM	1240 nM	> 39800 nM	–	–	–	–	–
CNC(=O)c1cccc(C(c2ccccc2)N2C3CCC2CN(C(=O)c2cncc(C)c2)C3)c1 (centres unmarked) [AA-630, N-methyl-3-((3-(5-methylnicotinoyl)-3,8-diazabicyclo[3.2.1]octan-8-yl)(phenyl)methyl)benzamide]	–	–	8560 nM	–	1370 nM	7730 nM	> 39800 nM	–	–
Cc1cncc(C(=O)N2CCN(C(c3ccccc3)c3ccccc3)CC2=O)c1 [AA-637, 4-benzhydryl-1-(5-methylnicotinoyl)piperazin-2-one]	90 nM	–	> 9610 nM	> 39800 nM	–	> 9610 nM	–	–	–
CC(=O)Nc1cncc(C(=O)N2CCN(C(c3ccccc3)c3ccccc3)CC2)c1 [AA-624, N-(5-(4-benzhydrylpiperazine-1-carbonyl)pyridin-3-yl)acetamide]	890 nM	2620 nM	> 9610 nM	> 39800 nM	–	–	–	–	–
COc1cncc(C(=O)N2CCN(C(c3ccccc3)c3cccnc3)CC2)c1 (centres unmarked) [MKP-1194, 1-(5-methoxypyridine-3-carbonyl)-4-[phenyl(pyridin-3-yl)methyl]piperazine]	1100 nM	2120 nM	> 9610 nM	> 39800 nM	–	–	–	–	–
CC(=O)Nc1cncc(C(=O)N2CC3CCC(C2)N3C(c2ccccc2)c2ccccc2)c1 [AA-633, N-(5-(8-benzhydryl-3,8-diazabicyclo[3.2.1]octane-3-carbonyl)pyridin-3-yl)acetamide]	–	–	2770 nM	–	640 nM	1580 nM	> 39800 nM	–	–
COc1cccc(C(c2ccccc2)N2CCN(C(=O)c3cncc(F)c3)CC2)c1 (centres unmarked) [MKP-1204, 1-(5-fluoropyridine-3-carbonyl)-4-[(3-methoxyphenyl)(phenyl)methyl] piperazine]	2300 nM	6660 nM	> 9610 nM	> 39800 nM	–	–	–	–	–
O=C1CC(C(=O)N2CCN(C(c3ccccc3)c3ccccc3)CC2)c2ccccc2N1 (centres unmarked) [ZS-325, 4-(4-benzhydrylpiperazine-1-carbonyl)-3,4-dihydro-1H-quinolin-2-one]	1510 nM	5680 nM	> 9610 nM	> 39800 nM	–	–	–	–	–
O=C(c1cc[nH]c(=O)c1)N1CCN(C(c2ccccc2)c2ccccc2)CC1 [NZ-769, 4-[4-(diphenylmethyl)piperazine-1-carbonyl]-1,2-dihydropyridin-2-one]	11300 nM	8050 nM	> 9610 nM	> 39800 nM	–	–	–	–	–
O=C(c1cncc(F)c1)N1CCN(C(c2ccccc2)c2cccnc2)CC1 (centres unmarked) [MKP-1192, 1-(5-fluoropyridine-3-carbonyl)-4-[phenyl(pyridin-3-yl)methyl]piperazine]	1930 nM	4830 nM	> 9610 nM	> 39800 nM	–	–	–	–	–
O=C(c1cncc(Br)c1)N1CCC(=C2c3ccccc3CS(=O)(=O)c3ccccc32)CC1 [NZ-802, (5-bromo-3-pyridyl)-[4-(5,5-dioxo-6H-benzo[c][1]benzothiepin-11-ylidene)-1-piperidyl]methanone]	67 nM	60 nM	41 nM	> 39800 nM	–	–	–	–	–
O=C(c1cncc(Br)c1)N1CCC(C(O)(c2ccccc2)c2ccccc2)CC1 [NZ-770, [1-(5-bromopyridine-3-carbonyl)piperidin-4-yl]diphenylmethanol]	380 nM	510 nM	> 9610 nM	> 39800 nM	–	–	–	–	–
O=C(c1cncc2cc[nH]c12)N1CC2CCC(C1)N2C(c1ccccc1)c1ccccc1 [AA-643, (8-benzhydryl-3,8-diazabicyclo[3.2.1]octan-3-yl)(1H-pyrrolo[3,2-c]pyridin-7-yl)methanone]	–	–	1050 nM	–	58 nM	348 nM	21500 nM	–	–
O=C(c1cncc(F)c1)N1CCC(=C(c2ccccc2)c2ccccc2)CC1 [NZ-780, 3-[4-(diphenylmethylidene)piperidine-1-carbonyl]-5-fluoropyridine]	310 nM	1390 nM	> 9610 nM	30100 nM	–	–	–	–	–
O=C(c1cc(Br)cnc1Cl)N1CCN(C(c2ccccc2)c2ccccc2)CC1 [AA-606, (4-benzhydrylpiperazin-1-yl)(5-bromo-2-chloropyridin-3-yl)methanone]	> 10000 nM	–	> 9610 nM	> 39800 nM	–	> 9610 nM	–	–	–
O=C(c1cccnc1)N1CCN(C(c2ccccc2)c2cccnc2)CC1 (centres unmarked) [MKP-1183, 1-[phenyl(pyridin-3-yl)methyl]-4-(pyridine-3-carbonyl)piperazine]	1700 nM	4340 nM	> 9610 nM	> 39800 nM	–	–	–	–	–
O=C(c1cncc(Cl)c1)N1CCN(C(c2ccccc2)c2cccc(F)c2)CC1 (centres unmarked) [MKP-1227, 1-(5-chloropyridine-3-carbonyl)-4-[(3-fluorophenyl)(phenyl)methyl]piperazine]	88 nM	457 nM	614 nM	> 39800 nM	–	–	–	–	–
O=C(c1cncc2[nH]ccc12)N1CCN(C2c3ccccc3CS(=O)(=O)c3ccccc32)CC1 (centres unmarked) [NZ-809, [4-(5,5-dioxo-6,11-dihydrobenzo[c][1]benzothiepin-11-yl)piperazin-1-yl]-(1H-pyrrolo[2,3-c]pyridin-4-yl)methanone]	43 nM	88 nM	111 nM	> 39800 nM	–	–	–	15 nM	88 nM
